For this experiment, the target named is MAT2A (Homo sapiens (Human), UniProt P31153). Kind of experiment: MAT2A Biochemical Assay. Conditions: Biomol Green readout O.D.620; 1 uM start, 3-fold dilution, 10 doses; read-out: MAT2A enzymatic IC50. The protocol:
Example A: MAT2A Biochemical Assay
Compounds described herein were tested as follows:
• (1). Prepared 1×Assay buffer. • (2). Preparation of compound concentration gradient: the compounds test condition were 1 uM start, 3-fold dilution, 10 doses, singlet or duplicate. 100× concentration compounds were prepared in 384-well plate. Then used Echo 550 to transfer 250 nl to a 384-reaction plate for later use. Added 250 nl of 100% DMSO to the negative and positive control wells. • (3). Prepared 1.67× final concentration enzyme solution with 1×Assay buffer. • (4). Added 15 μl of 1.67× Enzyme solution to the compound wells and positive control wells; added 15 μl of 1 Assay buffer to the negative control wells. • (5). Centrifuged at 1000 rpm for 30 seconds and incubate for 15 minutes. • (6). Prepared 2.5× final concentration Substrate mix solution with 1×Assay buffer. • (7). Added 10 μl of 2.5× final concentration Substrate mix solution to start the reaction. • (8). Centrifuged at 1000 rpm for 30 seconds and incubate for 150 minutes. • (9). Added 50 μl Biomol Green to stop the reaction, centrifuge at 1000 rpm for 30 seconds and incubate for 15 minutes. read O.D.620, process data.
• (1) Using GraphPad Prism 5. • (2) % Inh=(Max signal−Compound signal)/(Max signal−Min signal)*100. • (3) Max signal was obtained from the positive control wells. • (4) Min signal was obtained from the negative control wells.
MAT2A, sequence (P31153 whole entry, species assumed): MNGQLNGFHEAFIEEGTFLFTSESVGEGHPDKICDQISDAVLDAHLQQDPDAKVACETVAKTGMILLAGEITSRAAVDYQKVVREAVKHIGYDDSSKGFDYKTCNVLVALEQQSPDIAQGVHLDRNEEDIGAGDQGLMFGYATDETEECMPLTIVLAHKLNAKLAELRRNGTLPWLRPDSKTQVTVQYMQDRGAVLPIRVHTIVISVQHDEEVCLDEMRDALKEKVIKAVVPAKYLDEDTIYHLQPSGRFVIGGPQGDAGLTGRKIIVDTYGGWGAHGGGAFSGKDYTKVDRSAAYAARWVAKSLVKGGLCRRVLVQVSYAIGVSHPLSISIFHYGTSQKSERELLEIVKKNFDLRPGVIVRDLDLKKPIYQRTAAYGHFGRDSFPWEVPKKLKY
On to `C#CC1(Nc2nc(=O)n(-c3cccnc3)c3cc(C(F)(F)F)cc(OC)c23)CC1` [Example 47, 4-((1-ethynylcyclopropyl)amino)-5-methoxy-1-(pyridin-3-yl)-7-(trifluoromethyl)quinazolin-2 (1B)-one], for which the IC50 (commonly the concentration that gives 50% inhibition) is less than 50 nM.

With `C#CCNc1nc(=O)n(-c2nccnc2C)c2cc(C(F)(F)F)cc(OC)c12` [Example 48, 5-methoxy-1-(3-methylpyrazin-2-yl)-4-(prop-2-yn-1-ylamino)-7-(trifluoromethyl)quinazolin-2 (1H)-one], the IC50 is less than 50 nM.

On to `C#CC1(Nc2nc(=O)n(-c3cccnc3C)c3cc(C(F)(F)F)cc(OC)c23)CC1` [Example 49], for which the IC50 was less than 50 nM.

For the molecule `C#CC1(Nc2nc(=O)n(-c3cccnc3C)c3cc(C(F)(F)F)cc(OC)c23)CCC1` [Example 50], the IC50 was less than 50 nM.

As for `C#CCN(C)c1nc(=O)n(-c2cccnc2)c2cc(C(F)(F)F)ccc12` [Example 51], the IC50 is less than 50 nM.

Take `C#CCNc1nc(=O)n(-c2c(C)ccnc2C)c2cc(C(F)(F)F)ccc12` [Example 52, 1-(2,4-dimethylpyridin-3-yl)-4-(prop-2-yn-1-ylamino)-7-(trifluoromethyl)quinazolin-2 (11H)-one]: the IC50 is less than 50 nM.

For `C#CCNc1nc(=O)n(-c2cnccn2)c2cc(C(F)(F)F)ccc12` [Example 53, 4-(prop-2-yn-1-ylamino)-1-(pyrazin-2-yl)-7-(trifluoromethyl)quinazolin-2 (1H)-one], the IC50 was less than 50 nM.

Turning to `C#CCNc1nc(=O)n(-c2cnccn2)c2cc(C(F)(F)F)cc(OC)c12` [Example 54, 5-methoxy-4-(prop-2-yn-1-ylamino)-1-(pyrazin-2-yl)-7-(trifluoromethyl)quinazolin-2 (1H)-one], the IC50 was less than 50 nM.

Regarding `C#CC1(Nc2nc(=O)n(-c3cccnc3)c3cc(C(F)(F)F)cnc23)CC1` [Example 56, 4-((1-ethynylcyclopropyl)amino)-1-(pyridin-3-yl)-7-(trifluoromethyl)pyrido[3,2-d]pyrimidin-2 (1H)-one], the IC50 was more than 1000 nM.

Regarding `C#CCNc1nc(=O)n(-c2cccnc2)c2nc(C(F)(F)F)ccc12` [Example 57, 4-(prop-2-yn-1-ylamino)-1-(pyridin-3-yl)-7-(trifluoromethyl)pyrido[2,3-d]pyrimidin-2 (1H)-one], the IC50 is less than 50 nM.

Regarding `C#CCNc1nc(=O)n(-c2cccnc2)c2nc(C(F)(F)F)ncc12` [Example 61, 4-(prop-2-yn-1-ylamino)-1-(pyridin-3-yl)-7-(trifluoromethyl)pyrimido[4,5-d]pyrimidin-2 (1H)-one], the IC50 was less than 50 nM.

As for `C#CCNc1nc(=O)n(-c2cccnn2)c2nc(C(F)(F)F)ccc12` [Example 63, 4-(prop-2-yn-1-ylamino)-1-(pyridazin-3-yl)-7-(trifluoromethyl)pyrido[2,3-d]pyrimidin-2 (1H)-one], the IC50 is less than 50 nM.

`C#CC(C)Nc1nc(=O)n(-c2cccnc2)c2cc(C(F)(F)F)ccc12` (stereo not drawn) [Example 64]: the 50% inhibitory concentration (IC50) was less than 50 nM.

Take `C#CC(C)Nc1nc(=O)n(-c2cccnc2)c2cc(Cl)cc(OC)c12` (stereo not drawn) [Example 65]: the IC50 is less than 50 nM.

For the molecule `C#CC1(Nc2nc(=O)n(-c3cccnc3)c3cc(Cl)cc(OC)c23)CC1` [Example 66], the IC50 was less than 50 nM.

Turning to `C#CC1(Nc2nc(=O)n(-c3cccnc3)c3cc(C(F)(F)F)ccc23)CC1` [Example 67], the IC50 is less than 50 nM.

Turning to `C#CC1(Nc2nc(=O)n(-c3cccnc3)c3nc(C(F)(F)F)ccc23)CC1` [Example 68, 4-((1-ethynylcyclopropyl)amino)-1-(pyridin-3-yl)-7-(trifluoromethyl)pyrido[2,3-d]pyrimidin-2 (1H)-one], the IC50 is less than 50 nM.

As to `C#CC1(Nc2nc(=O)n(-c3cnccn3)c3cc(C(F)(F)F)ccc23)CC1` [Example 69, 4-((1-ethynylcyclopropyl)amino)-1-(pyrazin-2-yl)-7-(trifluoromethyl)quinazolin-2 (1H)-one], the IC50 is less than 50 nM.

`C#CC1(Nc2nc(=O)n(-c3cccnn3)c3nc(C(F)(F)F)ccc23)CC1` [Example 70, 4-((1-ethynylcyclopropyl)amino)-1-(pyridazin-3-yl)-7-(trifluoromethyl)pyrido[2,3-d]pyrimidin-2 (1H)-one]: the IC50 was less than 50 nM.

Regarding `C=CCNc1nc(=O)n(-c2cccnc2)c2cc(Cl)cc(OC)c12` [Example 73], the IC50 was less than 50 nM.

As for `C=CCNc1nc(=O)n(-c2cccnc2C)c2cc(Cl)cc(OC)c12` [Example 74], the IC50 is less than 50 nM.

Regarding `C=CC1(Nc2nc(=O)n(-c3cccnc3C)c3cc(Cl)cc(OC)c23)CC1` [Example 75, 7-chloro-5-methoxy-1-(2-methylpyridin-3-yl)-4-((1-vinylcyclopropyl)amino)quinazolin-2 (1H)-one], the IC50 is less than 50 nM.

For `C=CCNc1nc(=O)n(-c2cccnc2)c2cc(C(F)(F)F)ccc12` [Example 76], the IC50 is less than 50 nM.

For `C=CCNc1nc(=O)n(-c2cccnc2C)c2cc(C(F)(F)F)cc(OC)c12` [Example 77], the half-inhibitory concentration (IC50) was less than 50 nM.

The record behind these values is US20250042890A1, “METHIONINE ADENOSYLTRANSFERASE 2a (MAT2A) INHIBITORS AND USES THEREOF” (Insilico Medicine IP Limited, priority 2021, published 2025).
